Consider seven compounds from US20030087861A1, “Combined approach to treatment of cancer using a c-myc antisense oligomer” (priority 2001, published 2003).

In data set [1] the test system is Lewis lung carcinoma (LLC1) tumors. Kind of data set: Lewis lung carcinoma (LLC1) subcutaneous tumor model, tumor area growth and tumor mass. More on the design: Tumor Growth Rate (TGR): unit not given beside the values. Particulars: for Tumor Mass (gm ± STE): LLC1 tumor bearing mice, IP dosing per Table 2, combinations in alternating regimen (chemotherapy days 2-4, 14-16; PMO days 6-12, 18-23), mass at euthanization; for Tumor Growth Rate (TGR): linear regression of change in tumor area day 14 to 25, slope ± standard deviation, IP dosing per Table 2, combinations in alternating regimen; for % of Saline TGR: tumor growth rate relative to saline group, combinations in alternating regimen; for antitumor effect / tumor growth (in words): single agent, or staggered (alternating) regimen with the PMO after chemotherapy. It is filed as in vivo, C57BL/6J mice. As for the experimental part:
Examples are described in Smith et al., 2000. The model is based on the transplantation of Lewis lung cells (LLC1), a highly tumorigenic lung carcinoma cell line, into syngeneic […] mice. LLC1 produce discernable tumors by day 4 when 200,000 cells are transplanted subcutaneously onto the right flanks of C57-BL mice. Therapeutic efficacy was evaluated based on daily caliper measurements of tumor length and width and tumor weights at the end of 25 day studies. A 20 base PMO antisense to c-myc mRNA (AVI-4126, SEQ ID NO:1) was evaluated for efficacy in the model. […] AVI-4126 was also administered i.p. (300 μg/mouse/day) in combination with chemotherapy. Co-administration of cisplatin (83 μg/mouse/day) on days 2-4 and 13-15 with AVI-4126 on days 2-8 and 13-19 had no additional effect on tumor growth inhibition versus cisplatin alone (Example 1).
Tumor cells. The Lewis lung cell line (LLC1) used in the studies described herein was derived from the Lewis lung carcinoma established in 1951 by Dr. M. R. Lewis and has been utilized for the evaluation of cancer chemotherapeutic agents Mayo, 1972; Bertram et al., 1980). Lewis lung carcinoma cells (ATCC, Manassas, Va.) were maintained in DMEF-12 medium supplemented with 10% fetal bovine serum, penicillin (100 units/mL), streptomycin (100 μg/mL), and amphotericin (0.25 μg/mL) at 37° C. in a 5% CO2/95% air humidified incubator. Cells were harvested as an approximately 70% confluent culture of log growth phase at the time of transplant and were injected as a cell suspension in media at a concentration of 200,000 cells per 100 μl injection.
Syngeneic mice. C57BL/6J mice (Simonsen, Gilroy, Calif.) weighing 22 to 24 g were housed in sterile plastic cages at the Laboratory Animal Resources Facility at Oregon State University (OSU), Corvallis, Oreg. Mice were given access to rodent chow (Harlan Teklad, Madison, Wis.) and tap water ad libitum and exposed to 12 hour light/dark cycles. All animal protocols conformed to the ethical guidelines of the 1975 Declaration of Helsinki and were approved by the ‘Institutional Animal Care and Use Committee’ of OSU.
Statistical Analysis. All data are reported as the mean ±SEM were determined by the computer program InStat2 (GraphPad, San Diego). The p values were calculated by InStat2 using ANOVA and the Tukey multiple comparison test. Graphs, linear regression, and slopes were generated using Prism v2.0 (GraphPad).
Tumor studies with AVI-4126 and Chemotherapy Following a 5 day acclimation period, C57BL/6J mice (Simonsen, Gilroy, CA) cared for as set forth above, were anesthetized with isoflurane, shaved, and injected subcutaneously in the right rear flank with approximately 200,000 viable LLC1 cells (study day 0). Injection sites were monitored daily to ensure that solid, homogeneous tumor growth was consistently obtained 4 days after LLC1 cell injection. Chemotherapy injections were prepared fresh daily before i.p injection (see Table 1). All PMO's and cisplatin (Sigma, St. Louis, Mo.) were dissolved in sterile, apyrogenic saline (Sigma) adjusted to an injection volume of 0.1 ml. A Taxol stock solution (6 mg/ml in Cremophore EL and ethanol, Bristol Myers Squibb, Syracuse, N.Y.) was diluted to 1 mg/ml in 1× PBS prior to injection. Etoposide (Sigma) stock solutions were prepared by dissolving in 70% ethanol at 11 mg/ml followed by dilution with saline to a final concentration of 5 mg/ml. 5-FU (Calbiochem) was dissolved in saline at a concentration of 12.5 mg/ml.
Animals were treated as described. Therapeutic efficacy was evaluated based on daily measurement of tumor area (length x width, cm^2) with digital calipers and tumor mass determined at the time of euthanization. Mice in all studies were euthanized by asphyxiation with CO2 on the final day of PMO treatments. […]

For another data set, the system named is c-myc protein. Kind of data set: Immunoblot analysis of c-myc protein in LLC1 tumor lysates. It is filed as in vivo, mouse. Particulars: for effect on c-myc levels in tumor tissue (in words): compared to saline. As for the experimental part: Immunoblot analysis of c-myc protein. All antibodies were obtained from Santa Cruz Biotechnology (Santa Cruz, Calif.). Three-hundred micrograms of LLC1 protein lysate was analyzed on a 5% SDS/acrylamide stacking gel with a 12% v/v sodium dodecylsulfate (SDS)/acrylamide separating gel. Gels were blotted, probed, and visualized according to standard Western blotting protocols. Membranes were probed with rabbit anti-mouse c-myc polyclonal antibodies N-262 (sc-764) or C-19 (sc-788) diluted 1:2000 in blocking buffer (Genotech) followed by goat-anti rabbit HRP-conjugated antibody (sc-2054). The relative amount of c-myc and actin protein was visualized by ECLplus (Amersham, Piscataway, N.J.) and analyzed on a Kodak 440 Image Station using 1 D Image Analysis software (Kodak, Rochester N.Y.). Membranes were then soaked in stripping buffer (Genotech) for 20 minutes at 25° C. and reprobed with a 1:2000 dilution of goat anti-mouse β-actin polyclonal antibody (sc-1616), which served as a protein loading control, followed by donkey anti-goat HRP-conjugated antibody (sc-2056).
An initial study was performed to determine AVI-4126 levels in the tumor and to evaluate sequence specific inhibition of c-myc protein levels. Tumor bearing mice 24 days post LLC1 transplant were given injections of either saline, AVI-4126 or scrambled control (100 μg/mouse IP). Tumors were excised 4 hours later and evaluated for AVI-4126 and analyzed by immunoblot for c-myc protein, as described below.
Animals were treated as described. Therapeutic efficacy was evaluated based on daily measurement of tumor area (length x width, cm^2) with digital calipers and tumor mass determined at the time of euthanization. Mice in all studies were euthanized by asphyxiation with CO2 on the final day of PMO treatments. Tumors were immediately removed, weighed and approximately 0.25 g tumor tissue was homogenized in 1.0 ml Tissue-PE lysis buffer (Genotech, St. Louis, Mo.) containing protease inhibitor cocktail tablets (Complete™ Mini EDTA-free, Boehringer-Mannheim) which were dissolved in the lysis buffer 30 minutes before tissue homogenization. Lysates were centrifuged at 15,000× g for 15 minutes at 4° C. and 150 μl aliquots of supernatant were combined 1:1 with electrophoresis sample buffer and boiled at 100° C. for 5 minutes.
Background: Immunoblotting shows a protein as a band on a membrane.

On the set-up of data set [2]: species or system C57BL/6J mice. Particulars: mouse, in vivo, ip. As for the experimental part:
HPLC detection of AVI-4126 in LLC1 tumor tissue. The presence of AVI-4126 in tumor tissue lysates (prepared 4 hours after a single injection of 100 μg of AVI-4126 into tumor bearing mice) was determined via a 5′-flouresceinyl DNA:AVI-4126 (FDNA:AVI-4126) duplex detection method developed at AVI BioPharma (Corvallis, Oreg.). Briefly, 500 ng of internal standard (10 μl of a […] of 0.025M Tris buffer, pH=8) of a 15mer internal PMO standard complementary to the FDNA probe (5′-GAGGGGCATCGTCGC-3′ (SEQ ID NO: 14)) was added to each tumor tissue lysate. The lysate was combined with 250 μl methanol and mixed thoroughly. The sample was centrifuged 10 minutes at 15,000× g and the supernatant was removed and heated to 70° C. for g 10 minutes. […]
The entire 100 μl sample was then analyzed for the presence of FDNA:AVI-4126 duplex using reverse phase HPLC with fluorescence detection. The sample was injected into a Dionex DNAPac PA-100 column (4×250) using a Varian HPLC pump (model 9010 inert) equipped with a fluorescence detector and Al-200 autosampler (100 μl injector loop volume). […] The pump gradient program was 90% A+10% B (0 min) and 55% A+45% B (20 min.) at a flow rate of 1.5 ml/min with fluorescence detection at a 494 nm (excitation) and 518 nm emission wavelengths. […]

The nature of data set [3]: ICP-MS detection and quantitation of platinum/cisplatin in LLC1 tumor tissue. The class given is in vivo, C57BL/6J mice. Particulars: data not shown. As for the experimental part:
ICP-MS Detection and Quantitation of platinum/cisplatin. A 200 μL aliquot of tissue lysate (40 mg of LLC1 tumor tissue) was dissolved in 1.33 mL of aqua regia followed by a 10 fold dilution. The samples were then analyzed by ICP-MS technique for the presence of Pt according to the method of Long et al (16) by Anatek Labs (Moscow, ID).

[4] abbreviates: single injection 100 μg/mouse IP, tumors excised 4 hours later, FIG. 5A.

Regarding `CC(=O)O[C@H]1C(=O)[C@@]2(C)[C@H]([C@H](OC(=O)c3ccccc3)[C@]3(O)C[C@H](OC(=O)[C@H](O)[C@@H](NC(=O)c4ccccc4)c4ccccc4)C(C)=C1C3(C)C)[C@]1(OC(C)=O)CO[C@@H]1C[C@@H]2O` [Taxol, Paclitaxel], in data set [1], the “Tumor Mass (gm ± STE)” value amounted to 1.827 ± 0.210 gm, the “Tumor Growth Rate (TGR)” value worked out at 0.234 ± 0.023 and the “% of Saline TGR” value came out at 114.7%.
Take `N.N.[Cl][Pt][Cl]` [cisplatin, cis-diamminedichloroplatinum]: in data set [1], the “Tumor Mass (gm ± STE)” value was 0.550 ± 0.081 gm, the “Tumor Growth Rate (TGR)” value is listed as 0.101 ± 0.011, the “antitumor effect / tumor growth (in words)” value is listed as “significantly lower” and the “% of Saline TGR” value is given as 49.5%. Besides, the “necropsy appearance of tumors” value in data set [1] (cisplatin alone, and cisplatin plus co-administered AVI-4126) was “highly invasive and vascularized”. For the same compound, the “effect on c-myc levels in tumor tissue (in words)” value in the data set with c-myc protein is reported as “no statistical difference”.
Consider `COc1cc([C@@H]2c3cc4c(cc3[C@@H](O[C@@H]3O[C@@H]5CO[C@@H](C)O[C@H]5[C@H](O)[C@H]3O)[C@H]3COC(=O)[C@H]23)OCO4)cc(OC)c1O` [etoposide], for which, in data set [1], the “Tumor Mass (gm ± STE)” value is recorded as 0.970 ± 0.244 gm, the “Tumor Growth Rate (TGR)” value amounted to 0.153 ± 0.025 and the “% of Saline TGR” value came out at 75.0%.
In the case of “AVI-4126: 20 base PMO antisense to c-myc translation start site: ACGTTGAGGGGCATCGTCGC (antisense ACGTTGAGGGGCATCGTCGC; all phosphorodiamidate morpholino (PMO))”, in data set [1], the “Tumor Mass (gm ± STE)” value is listed as 1.788 ± 0.651 gm, the “Tumor Growth Rate (TGR)” value was determined as 0.212 ± 0.031, the “antitumor effect / tumor growth (in words)” value was “failed to significantly reduce tumor growth” and the “% of Saline TGR” value is 103.9%. The “inhibition of c-myc levels compared to saline control, n-terminal antibody” value with c-myc protein (band intensity normalized to β-actin, AVI-4126 alone 300 μg/mouse/day IP, FIG. 6A) was found to be 74%. Besides, the “inhibition of c-myc levels compared to saline control, c-terminal antibody” value with c-myc protein (band intensity normalized to β-actin, AVI-4126 alone 300 μg/mouse/day IP, FIG. 6B) is 61%. In the data set with c-myc protein (setting [4]), the “reduction of c-myc levels relative to saline control” value is given as 77% and the “reduction of c-myc levels relative to scrambled PMO control” value was determined as 63%. In data set [2], the “FDNA:AVI-4126 duplex fluorescence peak in tumor tissue lysate” value is “readily detectable” and the “degradation of AVI-4126 in tumor tissue” value is “No evidence of degradation”. Besides, in data set [3], the “effect of AVI-4126 administration on platinum levels in tumor tissue” value was “did not effect platinum levels”.
For the compound “RAD51AS: control PMO, mouse RAD51 sequence: CAAGCTGCATTTGCATAGCCAT (antisense CAAGCTGCATTTGCATAGCCAT; all phosphorodiamidate morpholino (PMO))”, in data set [1], the “Tumor Mass (gm ± STE)” value is on record as 1.193 ± 0.166 gm, the “Tumor Growth Rate (TGR)” value came to 0.198 ± 0.017 and the “% of Saline TGR” value is on record as 97.1%.
With “p21AS: control PMO, mouse p21 sequence: CATCACCAGGATTGGACATGG (antisense CATCACCAGGATTGGACATGG; all phosphorodiamidate morpholino (PMO))”, in data set [1], the “Tumor Mass (gm ± STE)” value is given as 1.260 ± 0.389 gm, the “Tumor Growth Rate (TGR)” value came out at 0.184 ± 0.030 and the “% of Saline TGR” value stood at 90.2%.
Turning to “scrambled control PMO: c-myc antisense scramble control PMO: ACTGTGAGGGCGATCGCTGC (ACTGTGAGGGCGATCGCTGC; all phosphorodiamidate morpholino (PMO))”, in the data set with c-myc protein, the “effect on c-myc levels in tumor tissue (in words)” value was “no effect”.
